Assay results: US20100172944A1, “COMBINATION OF MONOSACCHARIDES WITH SUNSCREENS AND USE THEREOF” (L'OREAL, priority 2008, published 2010)

Experiments:
[1] = test system: keratinocytes (HaCat line); experiment: Proliferation of keratinocytes in culture medium deficient in growth factors (Cyquant, Nile red, XTT markers); format: cell-based; details: medium depleted in growth factors; compared with untreated control
Procedure: The keratinocytes (HaCat line) are cultured under two conditions: whole defined culture medium (standard condition) and culture medium deficient in growth factors. This deficient medium gives rise to a controlled delay in cell proliferation. Under these conditions, it is then possible to measure the effects of compounds capable of compensating for the deficiency in growth factors of the culture medium and thus of relaunching the cell multiplication and/or of stimulating cell metabolism.
The keratinocyte proliferation is measured by means of three markers on the same cell population: the level of DNA, which is proportional to the number of cells (Cyquant probe), the level of constituent polar lipids of cell membranes (Nile red probe) and the mitochondrial respiration, which reflects the general cell metabolism (XTT probe).

type I procollagen = experiment: Synthesis of procollagen 1 in reconstructed skin (indirect immunofluorescence); format: cell-based, human; details: for procollagen 1 synthesis: reconstructed skin
Procedure: Conventional detection via indirect immunofluorescence of type I procollagen in the dermis of the reconstructed skin was also performed on other series of frozen sections (anti-procoll 1 antibody (MAB 1912 Millipore)+FTIC-coupled conjugate (112-095-068 Jackson Immunoresearch)). In order to obtain bearings within the cutaneous architecture during the microscopic examination of the sections, the cell nuclei of the keratinocytes and fibroblasts are localized by staining them with propidium iodide, as described above. Three frozen sections are prepared at random on each reconstructed skin and on each section, and two microscopic fields (25× objective lens) are analysed by fluorescence microscopy and photographed. The levels of fluorescence proportional to the amount of type I procollagen are compared between the control skin and the skin treated with rhamnose.

[2] = test system: dermal fibroblasts of the reconstructed skin; experiment: Proliferation of fibroblasts in whole reconstructed skin (propidium iodide nuclei count on frozen sections); format: cell-based, human; details: 5 mM; within 48 hours of treatment; vs control skin
Description: Rhamnose was studied on a model of whole reconstructed skin in order to measure its anti-ageing efficacy on the dermal compartment.
Briefly, the model of reconstructed skin used is that described by Bell et al. (Bell E. et al., The reconstitution of living skin, J. Invest. Dermatol., 1983, July; 81): it includes a dermal equivalent on which is reconstructed a multistratified epidermis; the dermal equivalent is manufactured from acid-soluble collagen, culture medium containing serum and normal adult human fibroblasts. After 5 days of shrinkage, this equivalent is inoculated with keratinocytes and then cultured for 6 days in immersion and for 7 days in emersion in order to obtain a multistratified and differentiated epidermis having a horny layer.
The reconstructed skin is treated with 5 mM rhamnose for 2 days and 5 days in the culture medium; after the treatment, the reconstructed skins are included in Tissue Tek in order to produce frozen sections 7 μm thick with a cryostat. […] Three frozen sections are prepared at random on each reconstructed skin; on each section, two microscopic fields (25× objective lens) are analysed by fluorescence microscopy and photographed. The dermal fibroblasts are thus counted for each reconstructed skin on six images in total representing the six microscopic fields considered. […]

C[C@H](O)[C@H](O)[C@@H](O)[C@@H](O)C=O [rhamnose, Rhamnose]
keratinocyte proliferation [1]: activate keratinocyte proliferation
green fluorescence proportional to the amount of type I procollagen (type I procollagen; 1 mM for 120 hours, compared with control skin (FIG. 4)): marked increase in green fluorescence
procollagen 1 synthesis (type I procollagen; 1 mM): stimulation of procollagen 1 synthesis
procollagen 1 synthesis (type I procollagen; 5 mM): stimulation of procollagen 1 synthesis
growth of the dermal fibroblasts of the reconstructed skin [2]: induces stimulation of growth
